Values of other authors, collected in patent US20090019042A1, “Method Of Screening Compound Regulating The Translation Of Specific mRNA” (Takeda Pharmaceutical Company Limited, priority 2004, published 2009).

Tests used:
[1] = target: xpt-pbux mRNA; conditions: guanine recognised by xpt-pbux mRNA
[2] = target: LysC mRNA; conditions: L-lysine recognised by LysC mRNA

## Nc1nc2nc[nH]c2c(=O)[nH]1 [guanine]
[1]
  Kd: < 5 nM

## NCCCC[C@H](N)C(=O)O [L-lysine]
[2]
  Kd: 1000 nM
